Laboratory results reported in patent US9926293B2, “Multivalent RAS binding compounds” (THE TRUSTEES OF COLUMBIA UNIVERSITY IN THE CITY OF NEW YORK, priority 2014, dated 2018).

What was measured:
[1] = target: T1, GppNHp-loaded RHOA (Homo sapiens, UniProt P61586); experiment: Microscale thermophoresis on GppNHp-loaded RHOA; type: binding; conditions: MST, up to 190 μM
T1 construct: purchased Abcam ab101594
Procedure: (§1) KRAS^G12D (250 μM) in 25 mM HEPES, 100 mM sodium chloride, 2 mM TCEP with 20 mM EDTA and 1 mM GppNHp was shaken at 220 rpm at 30° C. to remove the endogenous nucleotide, The solution was placed on ice for 2 minutes prior to the addition of 65 mM MgCl2. After an additional 10 minutes incubation on ice, 200 uL of a 10 uM solution of KRAS^G12D was combined with 200 uL of a 20 uM solution of NT-647-NHS-ester dye (from a 652.4 μM stock). The protein/dye mixture was rotated at 4° C. for 30 minutes, before being separated from the excess dye and buffer exchanged into 25 mM Tris, 100 mM sodium chloride, 2 mM TCEP, and 5 mM MgCl2 via a nap-5 column. The test compounds were arrayed across a 16-point dilution series consisting of 1.5% DMSO with 25 mM Tris, 100 mM NaCl, 2 mM TCEP, 5 mM MgCl2 and 0.05% tween-20. Thermophoretic movement of the fluorescently labeled protein with the inhibitors was performed using a Monolith NT.115 (Nanotemper Technologies). RALA and RHOA were purchased commercially from Abcam (RALA CN:ab102555, RHOA CN:ab101594).
To provide evidence that the compound indeed was selective for RAS GTPases, MST binding measurements were performed on GppNHp-loaded RHEB, RHOA and RALA (FIG. 14J).

[2] = tested on: Mia-Paca2, NCI-H441, NCI-H23, BJeLR and HT1080 cells; experiment: Expression of the mutant RAS isoform by qPCR; type: cell-based; conditions: 4 and 24 hours, 10 μM
Excerpt: Samples were normalized to DMSO treatment.
In addition to altering genes associated with RAS activation, it was hypothesized that upon inhibitor treatment, cells would attempt to compensate by expressing additional RAS proteins.

[3] = tested on: H441 (KRAS^G12V); experiment: Cell viability assay (384-well, Alamar blue); type: cell-based; conditions: Homo sapiens, NCI-H441, Table 8, 48 hours
Procedure: (§2) All cell culture assays were incubated at 37° C., 5% CO2 in media containing Dulbecco's Modified Eagle Medium (DMEM) with 10% fetal bovine serum (FBS) and 1% penicillin-streptomycin (PS). 384-well format for EC50 determination: cells were trypsinized, counted, and seeded into 384-well plates at 1,000 cells/well. After 12-16 hours, compounds (as 50 mM stocks in DMSO) were arrayed in an 8- or 16-point dilution series in 384-well polypropylene plates. Compound solutions were transferred at a 1:5 dilution into the assay plates. After 48 hours, a 50% Alamar blue solution was added to a final concentration of 10% Alamar blue. After 6 hours of incubation, fluorescence intensity was determined using a Victor3 plate reader (Perkin Elmer) with a 535 nm excitation filter and a 590 nm emission filter. All compound measurements were performed in triplicate. For experiments performed in 6-well format, cells were trypsinized, counted, and seeded into 6-well plates at 200,000 cells per well 16 h prior to use. Media was then aspirated and replaced with 2 mL of media containing compounds at the indicated concentrations (from 10 mM stocks in DMSO). After 24 hours, cells were trypsinized and viability was determined using Trypan Blue exclusion assay.

[4] = tested on: DLD1 (KRAS^Q61H); experiment: Cell viability assay (384-well, Alamar blue); type: cell-based; conditions: Homo sapiens, DLD-1, Table 8, 48 hours
Procedure: as §2

[5] = tested on: A549 (KRAS^G12S); experiment: Cell viability assay (384-well, Alamar blue); type: cell-based; conditions: Homo sapiens, Table 8, 48 hours
Procedure: as §2

[6] = tested on: H23 (KRAS^G12C); experiment: Cell viability assay (384-well, Alamar blue); type: cell-based; conditions: Table 8, 48 hours
Procedure: as §2

[7] = tested on: H358 (KRAS^G12C); experiment: Cell viability assay (384-well, Alamar blue); type: cell-based; conditions: Homo sapiens, NCI-H358, Table 8, 48 hours
Procedure: as §2

[8] = tested on: H460 (KRAS^Q61H); experiment: Cell viability assay (384-well, Alamar blue); type: cell-based; conditions: Homo sapiens, NCI-H460, Table 8, 48 hours
Procedure: as §2

[9] = Microsomal stability; type: in vitro ADME; conditions: mouse liver microsomes, 45 minute incubation
Procedure: Test compounds (0.5 μM) were incubated at 37° C. for up to 45 minutes in 50 mM of potassium phosphate buffer (pH 7.4) containing microsomal protein (0.5 mg/mL) and an NADPH generating system (0.34 mg/mL β-nicotinamide adenine dinucleotide phosphate (NADP), 1.56 mg/mL glucose-6-phosphate, 1.2 units/mL glucose-6-phosphate dehydrogenase). At 0, 5, 15, 30 and 45 minute intervals an aliquot was taken and quenched with acetonitrile (ACN) containing an internal standard. No-cofactor controls at 45 minutes were prepared. Following completion of the experimentation, the samples were analyzed by LC-MS/MS using a Shimadzu HPLC and an Applied Biosystem AP 14000.

[10] = tested on: Mouse embryonic fibroblasts (MEFs), null Hras and Nras, floxed Kras; experiment: Growth inhibition of MEFs with floxed Kras locus; type: cell-based; conditions: up to 5 μM, 24 hours, vs DMSO
Procedure: In parallel, cells were treated with DMSO or 4OHT at 600 nM for 6 days. […] Cells were then lysed and treated with a pro-fluorescent caspase 3/7 substrate (rhodamine 110 bis-N-CBZ-L-aspartyl-L-gluramyl-L-valyl-aspartic acid amide) for 16 hours and measured.
as §2, with “Media was then aspirated and replaced with 2 mL of media containing compounds at the indicated concentrations (from 10 mM stocks in DMSO).” left out, “assay. […]” for “assay.”

[11] = target: T2, KRAS^G12D with GDP (Homo sapiens, UniProt P01116, G12D); experiment: Microscale thermophoresis, GDP-loaded KRAS^G12D; type: binding
T2 construct: made in house; host or cells: Escherichia coli BL21-Gold (DE3)
Procedure: as §1, with “KRAS^G12D (250 μM) in 25 mM HEPES, 100 mM sodium chloride, 2 mM TCEP with 20 mM EDTA and 1 mM GppNHp was shaken at 220 rpm at 30° C. to remove the endogenous nucleotide, The solution was placed on ice for 2 minutes prior to the addition of 65 mM MgCl2.” left out

T1 sequence (P61586 whole entry): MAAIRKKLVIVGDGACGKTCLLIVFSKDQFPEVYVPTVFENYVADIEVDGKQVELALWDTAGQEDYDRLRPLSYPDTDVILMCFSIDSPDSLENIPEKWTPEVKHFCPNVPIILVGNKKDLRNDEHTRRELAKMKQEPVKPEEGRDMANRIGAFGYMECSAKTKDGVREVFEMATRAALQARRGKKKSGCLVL

For `NC1(C(=O)NCCCn2cc(-c3ccc(OC(F)(F)F)cc3)c3cc(CN4CCN(Cc5c(Cl)cccc5Cl)CC4)ccc32)CCNCC1` [Compound 31MEW44, 4-amino-N-(3-(5-((4-(2,6-dichlorobenzyl)piperazin-1-yl)methyl)-3-(4-(trifluoromethoxy)phenyl)-1H-indol-1-yl)propyl)piperidine-4-carboxamide], the binding [1] was “no binding was observed”, the RAS expression [2] was “time-dependent increase of RAS expression” and the EC50 [3] was 4.9 µM. For the same compound, the EC50 [4] was 8.8 µM, the EC50 [5] was 4.8 µM and the EC50 [6] was 2.4 µM. The EC50 [7] was 2.8 µM, the EC50 [8] was 4.9 µM and the compound remaining [9] was “all of 31MEW44 remained”. The growth inhibition [10] was 75%, the loss in affinity ([11]; GDP-loaded vs GppNHp-loaded KRAS^G12D) was “five-fold” and the Kd ([11]; MST, GDP-loaded KRAS^G12D) was 45 µM.
